From ChEMBL document CHEMBL5346961, “Discovery and Evaluation of 3-Quinoxalin Urea Derivatives as Potent, Selective, and Orally Available ATM Inhibitors Combined with Chemotherapy for the Treatment of Cancer via Goal-Oriented Molecule Generation and Virtual Screening” (J Med Chem, 2023)
Activity calls are given as the source filed them. The calls are words filed in the database; no cut-off is given here.

How the values were obtained:
HCT-116 [1] = assay: Induction of apoptosis in human HCT-116 cells assessed as early apoptotic cells at 1 uM measured after 2 days by AnnexinV-FITC/PI staining based analysis (reference value: 14.4%); type: functional; conditions: time 2 day
SW-620 [2] = assay: Antiproliferative activity against human SW620 cells assessed as reduction in cell viability incubated for 6 days by MTT assay; type: functional, cell-based; conditions: SW-620, 144 h
[3] = molecular target: T1, Serine-protein kinase ATM (Homo sapiens, UniProt Q13315); assay: Inhibition of ATM (unknown origin) preincubated with compound for 30 mins followed by substrate addition and measured after 2 hrs by HTRF method
T1 sequence (Q13315 whole entry): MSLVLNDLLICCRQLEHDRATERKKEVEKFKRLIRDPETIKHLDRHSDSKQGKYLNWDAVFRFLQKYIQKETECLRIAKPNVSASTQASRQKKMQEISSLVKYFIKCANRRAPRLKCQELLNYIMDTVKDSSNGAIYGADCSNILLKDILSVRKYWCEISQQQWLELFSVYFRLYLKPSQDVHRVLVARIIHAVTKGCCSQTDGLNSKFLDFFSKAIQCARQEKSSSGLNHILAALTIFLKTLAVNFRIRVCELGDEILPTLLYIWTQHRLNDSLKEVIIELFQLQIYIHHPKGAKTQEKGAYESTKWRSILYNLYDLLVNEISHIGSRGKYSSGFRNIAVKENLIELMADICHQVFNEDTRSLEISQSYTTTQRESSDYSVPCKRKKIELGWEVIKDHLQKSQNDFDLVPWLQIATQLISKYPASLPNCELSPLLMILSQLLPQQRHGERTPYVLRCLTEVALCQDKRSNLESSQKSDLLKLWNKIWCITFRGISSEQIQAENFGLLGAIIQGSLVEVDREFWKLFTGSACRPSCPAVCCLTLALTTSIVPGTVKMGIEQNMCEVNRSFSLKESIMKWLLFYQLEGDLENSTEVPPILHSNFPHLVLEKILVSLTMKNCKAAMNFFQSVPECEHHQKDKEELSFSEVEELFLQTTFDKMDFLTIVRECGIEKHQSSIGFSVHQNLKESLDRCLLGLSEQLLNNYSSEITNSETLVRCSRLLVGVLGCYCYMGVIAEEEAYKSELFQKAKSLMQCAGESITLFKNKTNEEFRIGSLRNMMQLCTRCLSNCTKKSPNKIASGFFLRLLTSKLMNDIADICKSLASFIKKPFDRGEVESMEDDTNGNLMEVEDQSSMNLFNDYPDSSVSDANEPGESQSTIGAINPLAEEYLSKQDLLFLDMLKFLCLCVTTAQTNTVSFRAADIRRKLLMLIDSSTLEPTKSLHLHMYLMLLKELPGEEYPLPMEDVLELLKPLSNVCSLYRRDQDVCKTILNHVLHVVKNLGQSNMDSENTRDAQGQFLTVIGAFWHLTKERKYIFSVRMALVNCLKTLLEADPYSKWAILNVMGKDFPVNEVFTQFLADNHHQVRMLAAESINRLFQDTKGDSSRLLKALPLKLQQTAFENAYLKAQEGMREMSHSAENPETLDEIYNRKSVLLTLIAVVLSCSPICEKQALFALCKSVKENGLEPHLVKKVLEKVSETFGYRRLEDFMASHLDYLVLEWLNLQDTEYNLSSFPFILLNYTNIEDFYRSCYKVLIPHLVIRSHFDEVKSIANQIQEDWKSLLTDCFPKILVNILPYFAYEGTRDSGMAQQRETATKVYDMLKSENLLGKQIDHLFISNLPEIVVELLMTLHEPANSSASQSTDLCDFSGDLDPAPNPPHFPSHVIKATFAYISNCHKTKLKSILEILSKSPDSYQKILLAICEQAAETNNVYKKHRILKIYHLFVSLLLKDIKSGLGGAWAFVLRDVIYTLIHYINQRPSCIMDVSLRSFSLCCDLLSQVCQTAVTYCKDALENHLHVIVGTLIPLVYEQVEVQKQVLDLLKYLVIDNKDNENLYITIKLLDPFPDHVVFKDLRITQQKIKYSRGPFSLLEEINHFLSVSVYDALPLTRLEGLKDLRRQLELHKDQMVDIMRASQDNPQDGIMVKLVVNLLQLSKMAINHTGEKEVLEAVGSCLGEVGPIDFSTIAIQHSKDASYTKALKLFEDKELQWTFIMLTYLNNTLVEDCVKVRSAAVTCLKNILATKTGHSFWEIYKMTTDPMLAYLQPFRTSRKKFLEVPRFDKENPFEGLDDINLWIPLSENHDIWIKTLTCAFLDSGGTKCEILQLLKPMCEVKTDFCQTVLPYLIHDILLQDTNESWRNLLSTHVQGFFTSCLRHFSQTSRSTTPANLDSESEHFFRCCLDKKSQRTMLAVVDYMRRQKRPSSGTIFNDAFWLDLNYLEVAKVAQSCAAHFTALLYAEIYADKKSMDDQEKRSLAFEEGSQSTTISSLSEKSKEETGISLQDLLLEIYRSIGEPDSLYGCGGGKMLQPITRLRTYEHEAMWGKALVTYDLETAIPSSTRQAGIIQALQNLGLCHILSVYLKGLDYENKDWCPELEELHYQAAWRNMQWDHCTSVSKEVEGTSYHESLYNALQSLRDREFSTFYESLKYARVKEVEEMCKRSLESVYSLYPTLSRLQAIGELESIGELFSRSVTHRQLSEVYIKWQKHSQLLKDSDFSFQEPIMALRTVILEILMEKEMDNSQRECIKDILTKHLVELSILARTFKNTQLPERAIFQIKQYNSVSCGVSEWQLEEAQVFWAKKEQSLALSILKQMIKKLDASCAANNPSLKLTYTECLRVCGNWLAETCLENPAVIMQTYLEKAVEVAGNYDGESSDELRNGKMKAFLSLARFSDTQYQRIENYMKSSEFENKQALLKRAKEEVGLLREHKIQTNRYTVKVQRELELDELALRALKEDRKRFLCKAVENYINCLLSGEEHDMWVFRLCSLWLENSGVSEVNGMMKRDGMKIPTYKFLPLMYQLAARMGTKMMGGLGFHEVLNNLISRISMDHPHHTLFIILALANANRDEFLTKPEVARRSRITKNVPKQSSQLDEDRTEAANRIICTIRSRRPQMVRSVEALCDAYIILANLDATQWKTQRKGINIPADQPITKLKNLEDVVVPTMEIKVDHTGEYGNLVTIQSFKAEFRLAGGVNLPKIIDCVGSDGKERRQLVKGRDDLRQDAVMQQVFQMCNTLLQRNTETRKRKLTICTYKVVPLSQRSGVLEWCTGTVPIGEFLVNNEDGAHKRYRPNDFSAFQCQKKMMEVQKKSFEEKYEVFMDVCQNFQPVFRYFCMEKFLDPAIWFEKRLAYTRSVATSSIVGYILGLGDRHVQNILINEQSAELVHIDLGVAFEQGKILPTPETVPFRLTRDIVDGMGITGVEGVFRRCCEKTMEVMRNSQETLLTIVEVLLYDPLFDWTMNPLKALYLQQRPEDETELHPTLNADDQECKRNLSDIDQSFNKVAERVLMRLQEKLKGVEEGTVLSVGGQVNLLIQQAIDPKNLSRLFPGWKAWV

HCT-116 [4] = assay: Induction of apoptosis in human HCT-116 cells assessed as late apoptotic cells at 1 uM measured after 2 days by AnnexinV-FITC/PI staining based analysis (reference value: 12.2%); type: functional; conditions: time 2 day
[5] = Oral bioavailability in Balb/C mouse at 10 mg/kg measured upto 48 hrs by LC-MS/MS analysis; type: ADME, organism-based; conditions: in vivo
[6] = Cmax in Balb/C mouse at 10 mg/kg,po measured upto 48 hrs by LC-MS/MS analysis; type: ADME, organism-based; design: dose 10 mg/kg, time < 48 hrs, route po; conditions: in vivo
HCT-116 [7] = assay: Induction of apoptosis in human HCT-116 cells assessed as viable cells at 1 uM measured after 2 days by AnnexinV-FITC/PI staining based analysis (reference value: 72.8%); type: functional; conditions: HCT-116, 48 h, time 2 day, read-out: Activity
[8] = Metabolic stability in human liver microsomes assessed as half life at 1 uM in presence of NADPH-regenerating system by LC-MS/MS analysis; type: ADME, Microsome
HCT-116 [9] = assay: Induction of apoptosis in human HCT-116 cells assessed as early apoptotic cells at 4 uM measured after 2 days in presence of irinotecan by AnnexinV-FITC/PI staining based analysis (reference value: 14.4%); type: functional; conditions: time 2 day
[10] = Toxicity in BALB/c nude mouse assessed as reduction in body weight at 20 to 40 mg/kg, po administered once daily for 3 days weekly after irinotecan post treatment for 21 days in presence of irinotecan relative to control; type: organism-based; design: scale not given: the % may be the effect or the level left; conditions: in vivo, 504 h, dose 20-40 mg/kg, time 21 day
[11] = Half life in Balb/C mouse at 10 mg/kg,po measured upto 48 hrs by LC-MS/MS analysis; type: ADME, organism-based; conditions: in vivo
MCF7 [12] = assay: Synergistic antiproliferative activity against human MCF7 cells assessed as combination index at […] measured after 6 days in presence irinotecan by MTT assay; type: functional; conditions: dose lower 100 µM; time 6 day
SW-620 [13] = assay: Synergistic inhibition of colony formation in human SW620 cells assessed as fold increase in irinotecan IC50 at 200 nM preincubated for 1 hr followed by irinotecan addition and measured after 1 week by crystal violet staining based […] assay; type: functional; conditions: time 169 hrs
HCT-116 [14] = assay: Inhibition of colony formation in human HCT-116 cells preincubated for 1 hr followed by exposure to 2 Gy gamma irradiation and measured after 1 week by crystal violet staining based […] assay; type: functional, cell-based; conditions: HCT-116, light or radiation study
[15] = molecular target: T1, Serine-protein kinase ATM; assay: Inhibition of ATM (unknown origin) at 1 uM in presence of [gamma33P-ATP] by scintillation counting method relative to control
HCT-116 [16] = assay: Induction of apoptosis in human HCT-116 cells assessed as late apoptotic cells at 4 uM measured after 2 days in presence of irinotecan by AnnexinV-FITC/PI staining based analysis (reference value: 12.2%); type: functional; conditions: time 2 day
[17] = molecular target: T1, Serine-protein kinase ATM; assay: Inhibition of ATM (unknown origin) assessed as remaining activity at 0.01 uM preincubated with compound for 30 mins followed by substrate addition and measured after 2 hrs by HTRF method relative to control; conditions: time 2.5 hrs
HCT-116 [18] = assay: Induction of apoptosis in human HCT-116 cells assessed as necrotic cells at 1 uM measured after 2 days in presence of irinotecan by AnnexinV-FITC/PI staining based analysis (reference value: 0.64%); type: functional; conditions: time 2 day
[19] = Clearance in Balb/C mouse at 10 mg/kg,iv measured upto 48 hrs by LC-MS/MS analysis; type: ADME, organism-based; conditions: in vivo
MCF7 [20] = assay: Antiproliferative activity against human MCF7 cells assessed as reduction in cell viability incubated for 6 days by MTT assay; type: functional, cell-based; conditions: MCF7, 144 h
SW-620 [21] = assay: Antitumor activity against human SW620 cells xenografted in BALB/c nude mouse model assessed as tumor growth inhibition at 40 mg/kg, po administered once daily for 3 days weekly after irinotecan post treatment for 21 days by caliper method relative to control; type: functional; conditions: SW-620, 504 h, time 21 day, read-out: TGI
HCT-116 [22] = assay: Induction of apoptosis in human HCT-116 cells assessed as necrotic cells at 2 uM measured after 2 days in presence of irinotecan by AnnexinV-FITC/PI staining based analysis (reference value: 0.64%); type: functional; conditions: time 2 day
SW-620 [23] = assay: Antitumor activity against human SW620 cells xenografted in BALB/c nude mouse model assessed as tumor growth inhibition administered orally once daily for 3 days weekly after irinotecan post treatment for 21 days by caliper method; type: functional, cell-based; conditions: dose 20-40 mg/kg, route po, time 21.0 day
HCT-116 [24] = assay: Induction of apoptosis in human HCT-116 cells assessed as early apoptotic cells at 2 uM measured after 2 days in presence of irinotecan by AnnexinV-FITC/PI staining based analysis (reference value: 14.4%); type: functional; conditions: time 2 day
[25] = Volume of distribution at steady state in Balb/C mouse at 10 mg/kg,iv measured upto 48 hrs by LC-MS/MS analysis; type: ADME, organism-based; conditions: in vivo, read-out: Vdss
HCT-116 [26] = assay: Induction of apoptosis in human HCT-116 cells assessed as late apoptotic cells at 4 uM measured after 2 days by AnnexinV-FITC/PI staining based analysis (reference value: 12.2%); type: functional; conditions: time 2 day
[27] = molecular target: DNA-dependent protein kinase catalytic subunit (Homo sapiens, UniProt P78527); assay: Inhibition of DNA-PK (unknown origin) in presence of [gamma33P-ATP] by scintillation counting method
HCT-116 [28] = assay: Induction of cell cycle arrest in human HCT-116 cells assessed as loss in accumulation of cells at G0/G1 phase at 1 to 4 uM measured after 48 hrs in presence of irinotecan by propidium iodide staining based flow cytometry analysis; type: functional; conditions: dose 1-4 µM
HCT-116 [29] = assay: Induction of apoptosis in human HCT-116 cells assessed as early apoptotic cells at 2 uM measured after 2 days by AnnexinV-FITC/PI staining based analysis (reference value: 14.4%); type: functional; conditions: time 2 day
MCF7 [30] = assay: Synergistic antiproliferative activity against human MCF7 cells assessed as fold increase in etoposide IC50 at 200 nM measured after 6 days by MTT assay; type: functional; conditions: time 6 day
HCT-116 [31] = assay: Induction of apoptosis in human HCT-116 cells assessed as late apoptotic cells at 2 uM measured after 2 days in presence of irinotecan by AnnexinV-FITC/PI staining based analysis (reference value: 12.2%); type: functional; conditions: time 2 day
HCT-116 [32] = assay: Induction of cell cycle arrest in human HCT-116 cells at 1 to 4 uM measured after 48 hrs by propidium iodide staining based flow cytometry analysis; type: functional; conditions: dose 1-4 µM
MCF7 [33] = assay: Synergistic antiproliferative activity against human MCF7 cells assessed as combination index at […] measured after 6 days in presence etoposide by MTT assay; type: functional; conditions: dose lower 100 µM; time 6 day
[34] = Volume of distribution at steady state in Balb/C mouse at 10 mg/kg,po measured upto 48 hrs by LC-MS/MS analysis; type: ADME, organism-based; conditions: in vivo

CC(C)NC(=O)N(C)c1cnc2ccc(-c3ccc(OCCCN4CCCCC4)nc3)cc2n1
Activity (HCT-116 [1]): 18.3%
IC50 (SW-620 [2]): > 9000 nM
IC50 [3]: 1.15 nM
Activity (HCT-116 [4]): 12.6%
bioavailability [5]: 107%
Cmax [6]: 10200 ng/mL
viability at 1 µM (HCT-116 [7]): 68%
half-life at 1 µM [8]: 12.8 h
Activity (HCT-116 [9]): 55.7%
Activity [10]: < 12%
t1/2 [11]: 3.37 h
CI (MCF7 [12]): <1
fold change (FC) (SW-620 [13]): 11.5
IC50 (HCT-116 [14]): 1.69 nM
inhibition [15]: < 50%
Activity (HCT-116 [16]): 35.2%
Activity [17]: 2%
Activity (HCT-116 [18]): 2.39%
clearance [19]: 13 mL/min/kg
IC50 (MCF7 [20]): > 9000 nM
inhibition in vivo at 40 mg/kg (SW-620 [21]): 85.3%
Activity (HCT-116 [22]): 1.67%
Activity (SW-620 [23]): Dose-Dependent Effect
Activity (HCT-116 [24]): 51.3%
Vd [25]: 5.93 L/kg
Activity (HCT-116 [26]): 13%
IC50 [27]: 420 nM
Activity (HCT-116 [28]): Active
Activity (HCT-116 [29]): 17.6%
fold change (FC) (MCF7 [30]): 5.2
Activity (HCT-116 [31]): 33.1%
Activity (HCT-116 [32]): inactive
CI (MCF7 [33]): <1
Vdss [34]: 3.52 L/kg
